Assay results published in patent US20050004044A1, “Use of orsaponin [3beta, 16beta, 17 alpha-trihydroxycholost-5-en-22-one 16-0-(2-0-4-methoxybenzoyl-beta-D-xylopyranosyl)-(1->3)-(2-0-acetyl-alpha-L-arabinopyranoside)] or OSW-1 and its derivatives for cancer therapeutics” (priority 2003, published 2005).

Columns and labels:
[1] = tested on: HCT116 p53+/+ colon cancer cells; experiment: Colony formation assay, HCT116 p53+/+; format: cell-based, human
Protocol: FIG. 6. Effect of OSW-1 on cell survival in human colon carcinoma cells. Human colon cancer cells with wild-type p53 (HCT116 p53+/+) and p53-null (HCT116 p53−/−) were treated with the indicated concentrations of OSW-1, and cell survival was measured by colony formation assay.
OSW-1 Inhibits Growth of Human Colon Cancer Cells. […] The HCT116 colon cancer cells with wild-type p53 (p53+/+) and p53-null (p53−/−) were treated with the various concentrations of orsaponin (OSW-1), and cell survival was measured by colony formation assay.

C6F cells = experiment: Mitochondrial transmembrane potential (rhodamine-123), C6F; format: cell-based, human; conditions: 0.5 nM
Protocol: FIG. 10. Effect of Orsaponin (OSW-1) on Mitochondrial transmembrane potential HL-60 cells. The parental HL-60 line and its mutant with mitochondrial respiration defect, clone C6F, were incubated with 0.5 nM OSW-1 for the indicated times. Change in mitochondrial transmembrane potential was measured by cytometry analysis, using rhodamine-123 as a potential-sensitive fluorescent dye.
(§1) 3. Analysis of the Mitochondrial Transmembrane Potential. To evaluate the role of mitochondrial respiration in the cytotoxicity of OSW-1, changes in the potential of mitochondrial membrane were analyzed. Following the treatment of cells with OSW-1 for different time periods, cells were incubated with rhodamine-123 which is a potential-sensitive dye. Cytometric analysis was used to record changes in mitochondrial potential. […]
The effect of OSW-1 on mitochondrial transmembrane potential in HL-60 cells and C6F cells was also analyzed by incubating the cells with 0.5 nM OSW-1 for the 4, 16 and 24 hours. Change in mitochondrial transmembrane potential was measured by flow cytometry analysis, using rhodamine-123 as a potential-sensitive fluorescent dye and are depicted in FIG. 10.

[2] = tested on: ovarian cancer SKOV3 cells; experiment: MTT cell growth inhibition, SKOV3; format: cell-based; conditions: Homo sapiens, SK-OV-3, SKOV3, 72 h
Protocol: FIG. 5. Effect of Orsaponin (OSW-1) on cell growth in human ovarian cancer cells (SKOV3). Human ovarian cancer SKOV3 cells were treated with the indicated concentrations of OSW-1 for 72 h. Cell growth inhibition was measured by the MTT assay. The IC50 value is approximately 0.2 nM under the experimental conditions.
1. MTT Assays. For these assays either cancer cell lines were used. Alternatively, mononuclear cells from peripheral blood samples of CLL patients or normal donors were separated by Ficoll Hipaque fractionation and resuspended in DMEM complete medium. […] After the indicated number of days (usually 3 days or 72 hours) of exposure to OSW-1, cell survival was assessed by the addition of the MTT dye to the wells. […] Survival of cells under orsaponin treatment was evaluated as a percentage of control cell growth. […]
OSW-1 Inhibits Growth of Ovarian Cancer Cells. […] Human ovarian cancer SKOV3 cells were treated with 0-10 nM OSW-1 for 72 h and cell growth inhibition was measured by the MTT assay.
The effect of 17-deoxyorsaponin in human ovarian cancer cells was determined. […] Cell growth inhibition was measured by MTT assay (FIG. 17). […] ML-1 leukemia cells were incubated with various concentrations of 17-deoxyorsaponin for 72 h and cell growth inhibition was measured using the MTT assay (FIG. 18).

[3] = tested on: human promyelocytic leukemia HL-60 cells; conditions: Mimaki et al., 1997; read-out: IC50, cytostatic activity against HL-60; cited from earlier work
[4] = tested on: C19 cells (ML-1 mutant with mitochondrial respiration defect); experiment: Mitochondrial transmembrane potential (rhodamine-123), C19; format: cell-based, human; conditions: C19, 1 nM
Protocol: FIG. 11. Effect of orsaponin (OSW-1) on mitochondrial transmembrane potential ML-1 cells. The parental ML-1 line and its mutant with mitochondrial respiration defect, clone C19, were incubated with 1 nM OSW-1 for the indicated times. Change in mitochondrial transmembrane potential was measured by cytometry analysis, using rhodamine-123 as a potential-sensitive fluorescent probe.
as §1
The effect of OSW-1 on mitochondrial transmembrane potential of ML-1 cells and the corresponding mitochondrial respiration defective mutant cell line C19 were analyzed by incubating with 1 nM OSW-1 for 4, 16 and 24 hours. Change in mitochondrial transmembrane potential was measured by cytometry analysis, using rhodamine-123 as a potential-sensitive fluorescent probe and are depicted in FIG. 11.

primary CLL cells = experiment: cells; format: cell-based
Protocol: FIG. 7. Effect of Orsaponin (OSW-1) on cell survival in primary human leukemia cells isolated from patients with chronic lymphocytic leukemia (CLL). Freshly isolated primary CLL cells were incubated with the indicated concentrations of OSW-1 for 72 hours in vitro. Cell viability was measured by MTT assay. […] Data from representative experiments with CLL cells from three different patients are shown. A total of 23 CLL blood samples were tested for sensitivity to OSW-1 in the same fashion.
1. MTT Assays. For these assays either cancer cell lines were used. Alternatively, mononuclear cells from peripheral blood samples of CLL patients or normal donors were separated by Ficoll Hipaque fractionation and resuspended in DMEM complete medium. Malignant cells from various human cell lines (usually at 5×10^4 cells/ml) or mononuclear cells from peripheral blood of leukemia patients and healthy donors (1×10^6 cells/ml) were incubated in either αMEM or RPMI 1640 with or without various concentrations of OSW-1 in the range of 0-10 nM. Each experimental condition was done in triplicate. After the indicated number of days (usually 3 days or 72 hours) of exposure to OSW-1, cell survival was assessed by the addition of the MTT dye to the wells. The MTT dye changes its color depending on the presence of live cells in the well. Survival of cells under orsaponin treatment was evaluated as a percentage of control cell growth. Alternatively, one can also use the dye trypan-blue which penetrates dead cells thereby allowing one to count live cells under the microscope and estimating percentage survival.
Reduction of Cell Viability in CLL-Patient-Derived Cells. […] Freshly isolated primary CLL cells were incubated with the 0-100 nM OSW-1 for 72 hours in vitro and cell viability was measured by the MTT assay.
Cytotoxic activity of 17-deoxyorsaponin was also assessed in a number of patient samples. Primary human leukemia cells isolated from 11 patients with chronic lymphocytic leukemia (CLL) were analyzed for cytotoxic activity of 17-deoxyorsaponin. […]

What does the source list for `COc1ccc(C(=O)OC2C(OC3C(O)COC(O[C@H]4C[C@H]5[C@@H]6CC=C7C[C@@H](O)CC[C@]7(C)[C@H]6CC[C@]5(C)[C@@]4(O)[C@H](C)C(=O)CCC(C)C)C3OC(C)=O)OCC(O)C2O)cc1` (stereo partly drawn) [OSW-1, 3β, 16β, 17 α-trihydroxycholost-5-en-22-one 16-O-(2-O-4-methoxybenzoyl-β-D-xylopyranosyl)-(1->3)-(2-O-acetyl-α-L-arabinopyranoside)]?
cell survival, colony formation [1]: effective in killing human colon cancer cells regardless of p53 expression status; change in mitochondrial transmembrane potential (C6F cells): did not show significant loss of mitochondrial transmembrane potential; IC50 [2]: ~0.2 nM; IC50 [3]: 0.1 to 0.3 nM; change in mitochondrial transmembrane potential [4]: loss of mitochondrial transmembrane potential in only a small portion the cells; IC50 (primary CLL cells; Homo sapiens, CLL cell, 72 h, primary CLL cells, 72 hours, MTT, mean of 23 patients, read-out: IC50, cell viability): 0.15 ± 0.26 nM; Selectivity Index (primary CLL cells; IC50 ratio of malignant/normal cells (CLL vs normal lymphocytes)): 23
